# Results taken from patent US20250188133A1, “CHIMERIC BACTERIOCINS AND METHOD FOR THE CONTROL OF PSEUDOMONAS” (priority 2022, published 2025).
# How the values were obtained:
# Format in all cases: in vivo
# P. aeruginosa PAO1 = assay: murine keratitis model, invasive strain (C57BL/6 mice)
# Procedure: (§1) The inbred mice of C57BL/6 strain of both sexes in equivalent numbers were used for the research. 2-6 months old, adult female and adult male mice were purchased from the Vilnius University vivarium of laboratory animals. The animals throughout the period of the experiment were given standard chow and drinking water ad libitum. Animals were housed in the individual plastic cages in a 12 h light/dark cycle at 21-23° C. All regulated procedures on living animals were approved by The Lithuanian Ethics Committee of Biomedical Research (Protocol no. B1-442) and were carried out in accordance with the European Union legislation of OECD (directive 2010/63/EU). The experiments were carried out in Biological research center of Lithuanian University of Health Sciences.
# (§2) For P. aeruginosa infection and keratitis induction the mice were anesthetized by Ketamine and Xylazine 90:9 mg/kg intraperitoneal injection. The cornea of the left eye of each mouse was visualized under a stereoscopic microscope, and three 1 mm scratches were made using a sterile 25 gauge needle. A 10 μL aliquot containing 4×10^6 cells of P. aeruginosa ATCC 19660 (cytotoxic strain) or PAO1 ATCC 15692 (invasive strain) was applied to the corneal surface. Depending on the experiment, the treatment was started 30 min or 6 h post infection. 10 μl aliquot containing 0.14 mg of tobramycin or 20 μg of S5-PmnH (both containing 0.5% hydroxypropyl methylcellulose (HPMC)) or PBS containing 0.5% HPMC was applied as one drop of substance to the each eye. HPMC is used as artificial tears and was used in order to thicken the tears film and prolong the presence of the applied product on the surface of the cornea. The treatment was continued for five days twice daily. Mice were euthanized by cervical dislocation 1, 3, 5 days post infection, and the eyeballs were collected and homogenized for viable bacteria count.
# (§3) The eyes were examined and photographed with a dissection microscope equipped with a digital camera at 1, 3 and 5 dpi to monitor the disease progression. At 1, 3 and 5 dpi disease severity was visually graded by using an established corneal damage scale: 0, the pupil was partially or fully covered by clear or slight opacity; +1, the anterior segment was partially or fully covered by slight opacity; +2, the pupil was partially or fully covered by dense opacity; +3, the entire anterior segment was covered by dense opacity; and +4, corneal perforation^40.
# (§4) Histopathology experiments were carried out at Lithuanian University of Health Sciences, Department of Veterinary Pathobiology of Veterinary Academy. One randomly chosen mice of each study group was used for histopathology experiments. Enucleated eyes were preserved in 10% formaldehyde. Eyes were paraffin-embedded, cut into 3-μm-thick sections, deparaffinised, rehydrated and used for preparation of hematoxylin/eosin stained samples.
# P. aeruginosa ATCC 27853 = assay: murine lung colonization and treatment (CD1 mice); conditions: 5 h post infection
# Procedure: CD1 male mice were supplied by Charles River (Margate, UK) and were specific pathogen free. Mice were 11 to 15 g on receipt at the facility and were allowed to acclimatize for at least 7 days.
# P. aeruginosa ATCC 27853 was recovered from long-term storage (−80° C.) and cultured on cystine-lactose-electrolyte-deficient (CLED) agar at 37° C. under aerobic conditions for approximately 16-24 h. 20 ml of Mueller Hinton broth was inoculated with a single well isolated colony and cultured overnight at 37° C. with shaking at 300 rpm65. The overnight broth was diluted 1:100 in Mueller Hinton broth and 100 ml was cultured in a baffle flask for ˜6 h at 37° C. with shaking at 300 rpm until the broth OD was ˜0.6 (˜mid-exponential phase). 20 ml of culture was centrifuged at 2465 g for 10 minutes and washed in PBS. The pellet was suspended in PBS and the OD600 adjusted to 0.67 (˜2.6×10^8 CFU/ml). The study inoculum was prepared from this by appropriate dilution with PBS. The inoculum concentration was confirmed by quantitative culture on Pseudomonas Selective Agar (PSA). The inoculum concentration for the study was 1.47×10^7 CFU/ml (5.87×10^5 CFU/mouse).
# Mice were infected under temporary inhaled 3% isoflurane anesthesia by intranasal (IN) instillation with 40 μl of the inoculum suspension split as 20 μl/nostril.
# 1 hour post infection 6 mice were sacrificed in order to evaluate the pre-treatment burden in lungs. Treatments were administered IN once at 1 h post infection (50 μl split to 25 μl/nares). Three treatment groups consisting of six mice each were administered S5-PmnH (2.5, 25 and 250 μg). The fourth group of mice (n=6) was administered 200 μg Tobramycin (40 mg/ml injection solution, Hospira UK Ltd, diluted 10 times). The study was terminated at 5 hours post infection for all animals. The clinical conditions and weights were assessed and animals were immediately euthanized using an overdose of pentobarbitone. Following confirmation of death, the lungs were excised and homogenized in ice cold sterile phosphate buffered saline using a Precellys bead beater. The homogenates were quantitatively cultured onto PSA agar and incubated at 37° C. for 24 hours before colonies were counted.
# P. aeruginosa ATCC 19660 = assay: murine keratitis model, cytotoxic strain (C57BL/6 mice)
# Procedure: as §1, §2, §3, §4
# [1] = treatment started 30 min post infection
smiles,measurement,setting,value
"NC[C@H]1O[C@H](O[C@H]2[C@H](O)[C@@H](O[C@H]3O[C@H](CO)[C@@H](O)[C@H](N)[C@H]3O)[C@H](N)C[C@@H]2N)[C@H](N)C[C@@H]1O [tobramycin, reference compound]",histological examination of infected treated eyes,P. aeruginosa PAO1; 1 dpi,signs of acute inflammation of cornea
same,histological examination of infected treated eyes,P. aeruginosa PAO1; 3 dpi,thinning of cornea epithelium and strong edema of the corneal stroma
same,histological examination of infected treated eyes,P. aeruginosa PAO1; day 5,"local inflammation of cornea, thinning and degeneration of cornea epithelium"
same,average reduction of bacterial burden vs mock-treated,"P. aeruginosa PAO1; treatment started 6 h post infection, 1 dpi",1.42 log 10 CFU/cornea
same,mice from which no viable bacteria were isolated,"P. aeruginosa PAO1; treatment started 6 h post infection, 3 dpi, three mice per group",three
same,"viable bacteria in cornea, individual mice","P. aeruginosa PAO1; treatment started 6 h post infection, 5 dpi, mice with bacteria",2.8 log 10 CFU/cornea
same,mice from which no bacteria were isolated,"P. aeruginosa PAO1; treatment started 6 h post infection, 5 dpi, three mice per group",two
same,reduction of lung burden vs vehicle,P. aeruginosa ATCC 27853; 200 μg/mouse IN once 1 h post infection,2.75 log10 CFU/g
same,reduction of burden below the level of stasis (pre-treatment),P. aeruginosa ATCC 27853; 200 μg/mouse IN once,1.23 log10 CFU/g
same,histopathology of infected treated eyes,P. aeruginosa ATCC 19660; [1],Only weak oedema in the corneal stroma
same,"signs of disease (visual inspection, clinical score)",P. aeruginosa ATCC 19660; [1],No signs of disease were observed in majority of samples
same,viable bacteria isolated from infected eyes,"P. aeruginosa ATCC 19660; treatment started 30 min post infection, twice daily, 1, 3 or 5 dpi, 20 μg S5-PmnH or 0.14 mg tobramycin per eye",no viable P. aeruginosa were isolated
same,viable bacteria isolated,"P. aeruginosa ATCC 19660; treatment started 6 h post infection, 1, 3 or 5 dpi",no viable bacteria were isolated
same,clinical score evaluation,"P. aeruginosa ATCC 19660; treatment started 6 h post infection, 1 and 3 dpi, two S5-PmnH-treated and one tobramycin-treated mice",Only mild disease signs were observed
same,histopathology of infected treated eyes,"P. aeruginosa ATCC 19660; treatment started 6 h post infection, 3 and 5 dpi",slight thickening of epithelium
same,clinical score evaluation,"P. aeruginosa ATCC 19660; treatment started 6 h post infection, 5 dpi",all corneas were completely clear
